Assay [1] relates to patients with newly diagnosed breast cancer receiving doxorubicin and cyclophosphamide. Kind of assay: Phase I/II dose escalation study of AII(1-7) before and after chemotherapy; adverse event alopecia. The format is in vivo, human. The conditions noted are these: for incidents of alopecia associated with chemotherapy: breast cancer patients, doxorubicin 60 mg/m2 and cyclophosphamide 600 mg/m2, subcutaneous once daily. The procedure: Dose escalation within an individual patient was not permitted.
Following the rest period, a chemotherapy regimen containing doxorubicin 60 mg/m^2 and cyclophosphamide 600 mg/m^2 was initiated.
An adverse event (AE) was considered any unfavorable or unintended change in structure, function, signs, or symptoms temporally associated with the use of a medicinal product experienced by a person administered a pharmaceutical product, whether or not a causal relationship with the product has been established. During the conduct of this clinical trial, study personnel asked open-ended questions to obtain information about AEs at every visit. Signs and symptoms were graded by the Investigator using the WHO toxicity criteria. For alopecia, no notation was made if there was no hair loss. If there was hair loss, it was graded as mild (1) or pronounced (2). In this trial, the incidents of alopecia associated with chemotherapy were as follows: […]

The test system of assay [2] is C57BL/6 mice. The experiment in a line: Hair cycle synchronized animal model, cyclophosphamide induced alopecia. The settings on record: for mice with observable hair regrowth: day 13, 30 μg/kg/day, control 1 of 5; for percentage of the area with hair regrowth: day 13, FIG. 1; for number of mature hair follicles present: day 19, histology, FIG. 2. The format is in vivo, mouse. The text has this:
Adolescent, 6- to 8-week-old female, C57BL/6 mice (Simonson, Gilroy, Calif.) with normal, black fur were purchased and housed in community cages with 12-hour light cycles with mouse chow and water ad libitum. In contrast to the mosaic cycling of human hair follicles, these mice display a unique hair cycle synchronization, which makes them a most productive model for hair research. Only mice in the resting stage of the hair cycle (telogen) are used for these studies. In the truncal skin of mice all melanocytes reside in hair follicles, and pigment production (melanogenesis) occurs exclusively in anagen follicles. Thus, telogen C57BL/6 mice can be recognized reliably by the homogeneously pink color of their back skin.
Predictable and highly synchronized anagen development can only be achieved with anagen induction by depilation, as opposed to spontaneous anagen development. Thus, anagen was induced in the back skin of telogen mice by depilation so that, at the start of pharmacological manipulation, all hair follicles in the depilated back skin area of all mice are in exactly the same stage of anagen development. As soon as anagen VI had been reached, all mice were injected once with a high dose of cyclophosphamide. In all experiments, control and test mice were then compared for signs of hair loss, for skin color changes indicating the effect of test drugs on hair cycling and follicle melanogenesis, and for hair regrowth.
Under ketamine hydrochloride-induced general anesthesia, telogen mice that had gone through several postnatal hair cycles were induced to enter anagen by depilation of all telogen hair shafts. This was done by applying a melted wax/rosin mixture to the back skin and by peeling off this mixture after hardening. By this technique, all depilated telogen hair follicles immediately begin to transform into anagen follicles with their associated melanogenesis.
As soon as early anagen VI had been reached by these induced anagen follicles, ie, on day 9 postdepilation (p.d.), a single intraperitoneal injection of cyclophosphamide was given (150 mg/kg).
Chemotherapy induced alopecia was manipulated pharmacologically by administration of the active agents of the present invention, topically or by subcutaneous injection once daily until necropsy. Pigmentation, hair regrowth, and follicle histology are analyzed as indicated. Particular attention is paid to any retarding or enhancing effects on the degree of alopecia, to the hair regrowth pattern, and to the pigmentation of regrowing hair shafts.
After the cyclophosphamide injection on day 9 p.d, the back skin of test and control mice were examined daily for a period of up to 32 days for signs of alopecia and color conversion from black to pink, indicating the progression of anagen follicles in the hair cycle via catagen to telogen. This color change results from the abrupt termination of melanogenesis in follicular melanocytes very early during catagen development. Visible changes were recorded and photodocumented. Starting 1 week after CYP injection, the skin was examined daily for signs of hair regrowth, skin repigmentation, and the quality of hair shaft pigmentation.
In C57BL/6 mice of this age group, depilation induced anagen follicles spontaneously enter catagen between days 17 and 20 p.d., mostly around day 18. The development of catagen follicles was indicated macroscopically by a change in skin color from black to light gray and occurs in large waves, appearing first in the neck region. then on the flanks, until finally the tail region enters catagen. Within 1 to 2 days after catagen induction, the follicle enters telogen, as indicated by a skin color change from gray to pink. […]

In assay [3] the test system is Sprague Dawley rats. The experiment in a line: Full-thickness excision model, rat: hair follicle regeneration. The settings on record: day 21, topical in 10% CMC or subcutaneous, not observed in placebo. The format is in vivo. The procedure:
(§1) Materials: The viscous vehicle was prepared from carboxymethylcellulose (CMC sodium salt, low viscosity, Sigma, St. Louis, Mo., Lot Number 34H0310) consisting of 10% low viscosity CMC in 0.05 M phosphate buffer, pH. 7.2, and sterilized by autoclaving followed by mixing with sterile peptide solutions. For subcutaneous administration, the peptides were dissolved in Lactated Ringers' Solution. […] 9GD (SEQ ID NO:41) was prepared by the Microchemical Core Laboratory at USC.
(§2) Surgical model: During the experimental period, C57BL/Ksj-db/db diabetic mice (Jackson Laboratories, Cold Spring Harbor, Me.) or Sprague Dawley rats were housed one per cage and maintained in a central animal care facility with a 12-hour light/dark cycle. Water and standard rodent laboratory chow were supplied ad libitum. All animals used for this study received humane care as defined by the National Research Council's criteria for humane care. The study protocols were approved by the University of Southern California's Institutional Animal Care and Use Committee before initiation of the studies.
Rat Model: Female Sprague-Dawley rats, 175 to 200 grams, were anesthetized with intramuscular ketamine/rompun. The backs of the rats were shaved with animal clippers, scrubbed with betadine, and washed with 70% alcohol before surgery. […]

For assay [4], the system named is C57BL/Ksj-db/db diabetic mice. The experiment in a line: Full-thickness excision model, mouse: hair follicle regeneration. The format is in vivo. The settings on record: day 26, topical in 10% CMC or subcutaneous, not observed in placebo. The procedure: as §1, §2
Mouse Model: On day 0, C57BL/Ksj-db/db diabetic mice were anesthetized with intramuscular ketamine/xylazine and backs were swabbed with 70% isopropyl alcohol followed by betadine. Afterwards, a 1.3 cm diameter full thickness skin area was excised on the back of each mouse. […]

Assay [5] can be described thus: Fragments tested for effectiveness (test not specified).

“Also recorded” adds a separate entry of the source. Where no end group is shown, it is not given here. [ ]: non-standard residue; d: D form. Nle = CCCC[C@H](N)C(=O)O

Regarding Asp-Arg-Val-Tyr-Ile-His-Pro [AII(1-7)], the “incidents of alopecia associated with chemotherapy” value in assay [1] is given as 46%. For the same molecule, in assay [1] (chemotherapy patients), the “effect on alopecia in chemotherapy patients relative to control” value is “significantly decreased alopecia”. In addition, in assay [2], the “mice with observable hair regrowth” value is 4 of 5, the “percentage of the area with hair regrowth” value is “significantly increased” and the “number of mature hair follicles present” value is on record as “increased”. The “microscopic examination of wound site: new adnexal structures (new hair follicles)” value (from here on “microscopic examination of wound site”) in assay [3] is given as “formation of new adnexal structures”. Further, the “microscopic examination of wound site” value in assay [4] is on record as “formation of new adnexal structures”.

Regarding “DR(nor)YIHP (DR[Nle]YIHP) [Analogue 9GD]”, in assay [2], the “mice with observable hair regrowth” value is listed as 5 of 5, the “percentage of the area with hair regrowth” value is given as “significantly increased” and the “number of mature hair follicles present” value was “increased”. Besides, the “microscopic examination of wound site” value in assay [3] was “formation of new adnexal structures”. In assay [4], the “microscopic examination of wound site” value is “formation of new adnexal structures”.

His-Pro-Phe (HPF) [AII(6-8)]: in assay [5], the effectiveness result was “not to be effective”.

On to Tyr-Ile-His-Pro-Phe (YIHPF) [AII(4-8)], for which, in assay [5], the effectiveness result is reported as “not to be effective; also recorded: ineffective”.

B1: Filgratim: filgrastim (NEUPOGEN, Amgen, Inc.), comparator arm (protein, chains of the INN, looked up)
chain: MTPLGPASSLPQSFLLKCLEQVRKIQGDGAALQEKLCATYKLCHPEELVLLGHSLGIPWAPLSSCPSQALQLAGCLSQLHSGLFLYQGLLQALEGISPELGPTLDTLQLDVADFATTIWQQMEELGMAPALQPTQGAMPAFASAFQRRAGGVLVASHLQSFLEVSYRVLRHLAQP
As for B1, the “incidents of alopecia associated with chemotherapy” value in assay [1] was 40%.
